# Reference: PubChem BioAssay (NCI)
# Values joined by “and” are separate entries in the source; they are usually repeats but may differ in a detail not shown here. Identical values can stand only once.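 Step 1: Grow cells in 96-well plates. Step 2: Expose to compound for 48 hours at 5 concentrations. Step 3: Interpolate endpoints linearly; if unreached, use highest concentration. The concentration for 50% growth inhibition is given as GI50. TGI: total growth inhibition.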
# Assays:
# Assay in all cases: NCI anticancer screen, dose series, 48 h
# 786-0 renal = system: 786-0 renal
# CAKI-1 renal = system: CAKI-1 renal
# CCRF-CEM leukemia = system: CCRF-CEM leukemia
# MDA-MB-231 breast = system: MDA-MB-231 breast
# SF-539 CNS = system: SF-539 CNS
# SK-OV-3 ovarian = system: SK-OV-3 ovarian
# SNB-75 CNS = system: SNB-75 CNS
# U251 CNS = system: U251 CNS
# SF-295 CNS = system: SF-295 CNS
# A498 renal = system: A498 renal
SMILES,GI50 (786-0 renal) [µM],TGI (786-0 renal),GI50 (CAKI-1 renal) [µM],TGI (CAKI-1 renal) [µM],GI50 (CCRF-CEM leukemia) [µM],TGI (CCRF-CEM leukemia),GI50 (MDA-MB-231 breast) [µM],TGI (MDA-MB-231 breast) [µM],GI50 (SF-539 CNS) [µM],TGI (SF-539 CNS),GI50 (SK-OV-3 ovarian) [µM],TGI (SK-OV-3 ovarian),GI50 (SNB-75 CNS) [µM],TGI (SNB-75 CNS) [µM],GI50 (U251 CNS) [µM],TGI (U251 CNS),TGI (SF-295 CNS) [µM],GI50 (A498 renal) [µM],TGI (A498 renal) [µM],GI50 (SF-295 CNS) [µM]
CC1(C)C2CCC13C(=O)C1OC3(C2)C2C(=O)c3cc4ccccc4cc3C(=O)C12 (configuration not stated),6,36.6 µM,1.29,5.33,3.42,25.7 µM,22.1,49.4,40.1,72 µM,12.2,67.4 µM,54.5,> 100,15.1,34.4 µM,,,,
O=C1CC(O)CC(=O)C1=C(O)CCCCCCCCCCc1ccccc1 (configuration not stated),,> 100 µM,,> 100,,> 100 µM,,,,> 100 µM,,> 100 µM,,> 100,,> 100 µM,> 100,,,
CCCCCCCCNc1cc2c3c(c1)CCCN3CCC2,3.31,13.7 µM,,,1.63,> 100 µM,2.56,11.7,2.81,17 µM,2.36,7.96 µM,1.47,10.8,0.39,15.1 µM,10.8,4.2,18.7,2.31
O=C(O)CCN(CCCCN(CCC(=O)O)CCC(=O)O)CCC(=O)O,,> 100 µM,,> 100,,> 100 µM,,,,> 100 µM,,> 100 µM,,> 100,,> 100 µM,> 100,,> 100,
C=C(C)C(O)CCC1(C)C=Cc2c(c(C)cc3c2[nH]c2ccccc23)O1 (configuration not stated),3.88,10.8 µM and 14.2 µM,,,4.2,25 µM and 16.7 µM,,11.4,3.64,9.45 µM and 13.2 µM,11,25 µM and 22.9 µM,,9.8,,11.1 µM and 17.6 µM,14.8,,26.6,
COc1ccc(-c2cc3c(c4cc(OC)ccc24)C(=O)OC3=O)cc1,,> 100 µM,,> 100,,> 100 µM,,> 100,,,,> 100 µM,,> 100,,> 100 µM,> 100,,,
CCc1ccccc1NC(=O)C1=C(C)NC(C)=C(C(=O)Nc2ccccc2CC)C1c1ccccc1Cl,,> 100 µM,,> 100,,> 100 µM,,,,> 100 µM,,> 100 µM,,> 100,,> 100 µM,> 100,,> 100,
CCOC(=O)c1c(C)nc2c(c1N)CC(=O)N2Cc1ccc(OC)cc1,3.45,27.8 µM,> 100,> 100,> 100,> 100 µM,3.77,> 100,7.03,> 100 µM,,,3.4,25.8,4.14,> 100 µM,7.37,,,2.53
O=C(NCCCCNc1cccccc1=O)OCc1ccccc1,,> 100 µM,,> 100,,> 100 µM,,,,,,> 100 µM,,> 100,,> 100 µM,> 100,,> 100,
COc1cc(Br)c(C=Nc2cccc3cc(OC)c(OC)cc23)cc1OC,,> 100 µM,,> 100,,> 100 µM,,,,66.9 µM,,> 100 µM,,59,,> 100 µM,73.4,,,
CS(=O)(=O)OC1CCC2(C#N)CCC1C2=O (configuration not stated),,> 100 µM,,> 100,,> 100 µM,,,,> 100 µM,,> 100 µM,,> 100,,> 100 µM,> 100,,> 100,
N.N.N.N.[Co+3].[N-]=[N+]=[N-].[N-]=[N+]=[N-].[N-]=[N+]=[N-],> 100,> 100 µM,,,61.1,> 100 µM,,,26.6,> 100 µM,> 100,> 100 µM,> 100,> 100,> 100,> 100 µM,> 100,> 100,> 100,> 100
NC(=O)C(=O)N/N=C1\C(=O)N(c2ccc(Cl)cc2Cl)C(=O)C1C(=O)Nc1ccc(Cl)cc1Cl (configuration not stated),,> 100 µM,,> 100,,> 100 µM,,,,> 100 µM,,> 100 µM,,> 100,,> 100 µM,> 100,,> 100,
CC1=C(c2ccccc2)C(c2ccccc2)=C(c2ccccc2)C2(c3ccccc3)C(=O)C(C)CN12 (configuration not stated),,> 100 µM,,> 100,,,,,,> 100 µM,,> 100 µM,,64.5,,> 100 µM,37.7,,> 100,
CCN(CC)c1c(C(=O)/C=C/c2ccc(Cl)cc2)c(-c2ccccc2)nn(C)c1=O,,3.5 µM,,21.5,,8.82 µM,,,,,,18.7 µM,,7.5,,3.18 µM,3.38,,4.44,
CCCCCCCCCCCc1nnc(N)o1,,> 100 µM,,,,,,,,> 100 µM,,> 100 µM,,> 100,,> 100 µM,> 100,,,
OC(Cc1ccncc1)C(Cl)(Cl)Cl (configuration not stated),> 100,> 100 µM,32.4,> 100,32,> 100 µM,> 100,> 100,> 100,> 100 µM,> 100,> 100 µM,> 100,> 100,> 100,> 100 µM,> 100,,,7.83
CC(C)=CC1C[C@H](C2CC=C3C2(C)CCC2[C@@]3(C)C(=O)CC3[C@]2(C)C=CC(=O)[C@]3(C)CO)CO1 (some centres not stated),,15.7 µM,,49,,8.71 µM,,,,11.9 µM,,39.6 µM,,23.1,,21.7 µM,32.1,,23.2,
O=C(O)CCCSC(=O)Nc1ccc(N=Nc2ccccc2)cc1,,> 100 µM,,> 100,,> 100 µM,,,,> 100 µM,,,,,,> 100 µM,> 100,,> 100,
COc1ccc(C23C(=O)c4ccccc4N2O[C@H]2C(=O)N(c4ccccc4)C(=O)[C@H]23)cc1 (some centres not stated),,> 100 µM,,> 100,,> 100 µM,,,,> 100 µM,,> 100 µM,,> 100,,> 100 µM,> 100,,> 100,
